Laboratory results reported in patent US9963461B2, “Phillygenin ibuprofen ester, preparation method therefor, and application thereof” (priority 2014, dated 2018).
Marks after values point to notes of the source that are not given here.

Legend:
[1] = tested on: parainfluenza virus; assay: Impact of the drugs on the virus-induced cytopathy (MTT); format: cell-based; details: parainfluenza virus 100 TCID50, Vero cells, about the maximal non-cytotoxic concentration, 72 hours
[2] = tested on: rabbit fever induced by typhoid and paratyphoid vaccine; assay: Rabbit fever induced by typhoid and paratyphoid vaccine; format: in vivo, Japanese white rabbits
Procedure: Japanese male big-ear white rabbits, weighing 1.5-2.0 kg. Before the test, WSC-411P portable digital thermometer was used to measure the normal rectal temperature twice (with certain interval for each time), and the average value was taken as the normal body temperature. Then 48 Japanese big-ear white rabbits with body temperature of 38-39.6° C. were selected and randomly divided into 8 groups by weight, namely: the blank control (normal saline) group, the model control (0.5% carboxymethylcellulose) group, the ibuprofen group (300 mg/kg), the phillygenin group (10 mg/kg), the 1.25, 2.5, and 5 mg/kg phillygenin ibuprofen ester groups and the positive drug paracetamol (50 mg/kg) group. The rabbits were fixed in a fixator. The blank control group was intravenously injected with normal saline of 1 ml/kg via the ear margin; The model control group and the drug groups were intravenously injected with typhoid and paratyphoid vaccines of 0.8 ml/kg via the ear margin. When the body temperature rise of the rabbits was greater than 1° C. (requiring about 1-1.5 h, which was restricted to 1 h in this test), the blank control group and the model group were administered intragastrically with 0.5% carboxymethycellulose of 1 ml/kg, and the drug groups were administered intragastrically with phillygenin ibuprofen ester and paracetamol. […]

[3] = tested on: beer yeast induced rat fever; assay: Beer yeast induced rat fever; format: in vivo, Wistar rats
Procedure: Male Wistar rats were selected, weighing 180-200 g. Before the test, WSC-411P portable digital thermometer was used to measure the normal rectal temperature twice (with certain interval for each time), and the average value of the two measurements was taken as the normal body temperature of the rat. Then 70 rats with the body temperature between 36.5° C. and 38° C. were chosen to be randomly divided into 7 groups by weight: the model (0.5% carboxymethylcellulose) group, the 2.5, 5, and 10 mg/kg phillygenin ibuprofen ester groups, the positive drug paracetamol (100 mg/kg) group, the ibuprofen group (i.e. prodrug control group, 300 mg/kg), the phillygenin group (100 mg/kg), with 10 rats for each group. Each group of rats were subjected to back subcutaneous injection with 10% fresh beer yeast suspension of 10 ml/kg to induce heat. After administration of 10% fresh beer yeast suspension for 6.0 h, phillygenin ibuprofen ester and paracetamol were both subjected to intragastric administration, and the model group was intragastrically administrated with equal volume of 0.5% carboxymethylcellulose. Rectal temperature was measured after 1 h, 2 h, 3 h and 4 h of the administration respectively. Changes in the body temperature were observed and difference between the groups was compared by inter-group t test processing through antipyretic percentage.

[4] = tested on: Adenovirus (AdV); assay: Impact of the drugs on the virus-induced cytopathy (MTT); format: cell-based; details: ADV 100 TCID50, Vero cells, about the maximal non-cytotoxic concentration, 72 hours
[5] = tested on: Herpes Simplex Virus type I (HSV-1); assay: as above; format: cell-based; details: HSV-I 100 TCID50, Vero cells, about the maximal non-cytotoxic concentration, 72 hours
[6] = tested on: respiratory syncytial virus (RSV); assay: as above; format: cell-based; details: RSV 100 TCID50, Vero cells, about the maximal non-cytotoxic concentration, 72 hours
[7] = tested on: Enterovirus EV71; assay: as above; format: cell-based; details: EV71 100 TCID50, Vero cells, about the maximal non-cytotoxic concentration, 72 hours
[8] = tested on: rat toe swelling induced by carrageenan; assay: Rat toe swelling induced by carrageenan; format: in vivo, Wistar rats
Procedure: The test groups were administered by sublingual intravenous injection. Before the test, capillary magnification measurement method was used to measure the normal volume of the right hind foot of the rats in each group. To avoid errors, the measurement location was fixed and the operation was made by one person both before and after the administration. The average value of the two measurements was taken as the normal volume of the right hind foot of the rats before administration. […] The difference between the groups was compared by inter-group t test processing through the difference percentage (swelling ratio) of the paw volume before and after the induced rat inflammation.

[9] = tested on: influenza virus; assay: Impact of the drugs on the virus-induced cytopathy (MTT); format: cell-based; details: influenza virus 100 TCID50, Vero cells, about the maximal non-cytotoxic concentration, 72 hours
[10] = 1.25 mg/kg, time after administration (min) 30
[11] = 1.25 mg/kg, time after administration (min) 60
[12] = 1.25 mg/kg, time after administration (min) 90
[13] = 1.25 mg/kg, time after administration (min) 120
[14] = 1.25 mg/kg, time after administration (min) 180
[15] = 2.5 mg/kg, time after administration (min) 30
[16] = 2.5 mg/kg, time after administration (min) 60
[17] = 2.5 mg/kg, time after administration (min) 90
[18] = 2.5 mg/kg, time after administration (min) 120
[19] = 2.5 mg/kg, time after administration (min) 180
[20] = 5.0 mg/kg, time after administration (min) 30
[21] = 5.0 mg/kg, time after administration (min) 90
[22] = 5.0 mg/kg, time after administration (min) 120
[23] = 5.0 mg/kg, time after administration (min) 180
[24] = 2.5 mg/kg, 1 h after administration
[25] = 2.5 mg/kg, 2 h after administration
[26] = 2.5 mg/kg, 3 h after administration
[27] = 2.5 mg/kg, 4 h after administration
[28] = 5.0 mg/kg, 1 h after administration
[29] = 5.0 mg/kg, 2 h after administration
[30] = 5.0 mg/kg, 3 h after administration
[31] = 5.0 mg/kg, 4 h after administration
[32] = 10.0 mg/kg, 1 h after administration
[33] = 10.0 mg/kg, 3 h after administration
[34] = 10.0 mg/kg, 4 h after administration

**Q.** What does the source list for `COc1ccc([C@H]2OCC3C2CO[C@H]3c2ccc(OC)c(OC(=O)C(C)c3ccc(CC(C)C)cc3)c2)cc1OC` (some centres unmarked) [Phillygenin ibuprofen ester, phillygenin ibuprofen ester]?
**A.** antiviral effective rate (ER %) [1]: 100.00**^# %; Body temperature (° C.) [2, 10]: 40.68 ± 0.41 °C; antipyretic percentage (%) [2, 10]: 0.98 ± 0.11%; Body temperature (° C.) [2, 11]: 40.61 ± 0.38 °C; antipyretic percentage (%) [2, 11]: −1.15 ± 0.15 %; Body temperature (° C.) [2, 12]: 40.50 ± 0.39 °C; antipyretic percentage (%) [2, 12]: −1.40 ± 0.20 %; Body temperature (° C.) [2, 13]: 40.29 ± 0.42 °C; antipyretic percentage (%) [2, 13]: −1.92 ± 0.31 %; Body temperature (° C.) [2, 14]: 40.10 ± 0.35 °C; antipyretic percentage (%) [2, 14]: −2.39 ± 0.43 %; Body temperature (° C.) [2, 15]: 40.83 ± 0.39 °C; antipyretic percentage (%) [2, 15]: −1.10 ± 0.00 %; Body temperature (° C.) [2, 16]: 40.37 ± 0.33 °C; antipyretic percentage (%) [2, 16]: −2.20 ± 0.05**^Δ▴▴ %; Body temperature (° C.) [2, 17]: 40.12 ± 0.21 °C; antipyretic percentage (%) [2, 17]: −2.81 ± 0.12 %; Body temperature (° C.) [2, 18]: 40.02 ± 0.20 °C; antipyretic percentage (%) [2, 18]: −3.06 ± 0.43 %; Body temperature (° C.) [2, 19]: 39.90 ± 0.25 °C; antipyretic percentage (%) [2, 19]: −3.35 ± 0.29 %; antipyretic percentage (%) ([2]; 5.0 mg/kg, 60 min after administration): −2.61 ± 0.10**^ΔΔ▴▴ %; Body temperature (° C.) [2, 20]: 40.57 ± 0.28 °C; antipyretic percentage (%) [2, 20]: −1.30 ± 0.11 %; Body temperature (° C.) ([2]; 5.0 mg/kg, time after administration (min) 60): 40.04 ± 0.20 °C; Body temperature (° C.) [2, 21]: 39.88 ± 0.23 °C; antipyretic percentage (%) [2, 21]: −2.98 ± 0.22 %; Body temperature (° C.) [2, 22]: 39.65 ± 0.20 °C; antipyretic percentage (%) [2, 22]: −3.54 ± 0.18***^Δ▴▴▴ %; Body temperature (° C.) [2, 23]: 39.42 ± 0.25 °C; antipyretic percentage (%) [2, 23]: −4.10 ± 0.17***^Δ▴▴ %; effect on rabbit fever induced by the typhoid and paratyphoid vaccines vs model group ([2]; high and medium dose groups (5, 10 mg/kg) 30-240 min, low dose group (5 mg/kg) 60-240 min after administration): significant antipyretic effect; Body temperature (° C.) [3, 24]: 38.93 ± 0.43 °C; antipyretic percentage (%) [3, 24]: −1.01 ± 1.05 %; Body temperature (° C.) [3, 25]: 38.75 ± 0.43 °C; antipyretic percentage (%) [3, 25]: −1.48 ± 1.11 %; Body temperature (° C.) [3, 26]: 38.56 ± 0.52 °C; antipyretic percentage (%) [3, 26]: −1.97 ± 1.67 %; Body temperature (° C.) [3, 27]: 38.25 ± 0.58 °C; antipyretic percentage (%) [3, 27]: −2.47 ± 1.80 %; Body temperature (° C.) [3, 28]: 38.48 ± 0.59 °C; antipyretic percentage (%) [3, 28]: −1.91 ± 0.40 %; Body temperature (° C.) [3, 29]: 38.33 ± 0.50 °C; antipyretic percentage (%) [3, 29]: −2.29 ± 0.54**^Δ▴▴ %; Body temperature (° C.) [3, 30]: 37.85 ± 0.33 °C; antipyretic percentage (%) [3, 30]: −3.52 ± 0.38***^Δ▴ %; Body temperature (° C.) [3, 31]: 37.67 ± 0.45 °C; antipyretic percentage (%) [3, 31]: −3.98 ± 0.52***^Δ▴▴ %; Body temperature (° C.) [3, 32]: 38.61 ± 0.51 °C; antipyretic percentage (%) [3, 32]: −2.10 ± 0.53**^Δ▴▴ %; Body temperature (° C.) ([3]; 10.0 mg/kg, 2 h after administration): 39.13 ± 0.45 °C; Body temperature (° C.) [3, 33]: 37.8 ± 0.40 °C; antipyretic percentage (%) [3, 33]: −4.01 ± 1.12***^Δ▴▴ %; Body temperature (° C.) [3, 34]: 37.74 ± 0.31 °C; antipyretic percentage (%) [3, 34]: −4.30 ± 1.26***^Δ▴▴ %; effect on the rat fever induced by beer yeast suspension vs model group ([3]; medium and high dose groups (5, 10 mg/kg), 1 h, 2 h, 3 h and 4 h after administration): significant cooling effects; antiviral effective rate (ER %) [4]: 75.90**^## %; antiviral effective rate (ER %) [5]: 99.80**^# %; antiviral effective rate (ER %) [6]: 87.74**^# %; antiviral effective rate (ER %) [7]: 99.81**^## %; Swelling ratio (%) ([8]; 2.5 mg/kg sublingual intravenous injection, 30 min): 0.215 ± 0.120%; Swelling ratio (%) ([8]; 2.5 mg/kg sublingual intravenous injection, 60 min): 0.293 ± 1.117%; Swelling ratio (%) ([8]; 2.5 mg/kg sublingual intravenous injection, 120 min): 0.450 ± 0.254%; Swelling ratio (%) ([8]; 2.5 mg/kg sublingual intravenous injection, 180 min): 0.800 ± 0.339%; Swelling ratio (%) ([8]; 2.5 mg/kg sublingual intravenous injection, 240 min): 0.865 ± 0.303%; Swelling ratio (%) ([8]; 2.5 mg/kg sublingual intravenous injection, 300 min): 1.045 ± 0.308%; Swelling ratio (%) ([8]; 2.5 mg/kg sublingual intravenous injection, 360 min): 0.930 ± 0.200%; Swelling ratio (%) ([8]; 5.0 mg/kg sublingual intravenous injection, 30 min): 0.065 ± 0.112 %; Swelling ratio (%) ([8]; 5.0 mg/kg sublingual intravenous injection, 60 min): 0.127 ± 0.178 %; Swelling ratio (%) ([8]; 5.0 mg/kg sublingual intravenous injection, 120 min): 0.209 ± 0.438 %; Swelling ratio (%) ([8]; 5.0 mg/kg sublingual intravenous injection, 180 min): 0.338 ± 0.524 %; Swelling ratio (%) ([8]; 5.0 mg/kg sublingual intravenous injection, 240 min): 0.461 ± 0.402**^Δ %; Swelling ratio (%) ([8]; 5.0 mg/kg sublingual intravenous injection, 300 min): 0.688 ± 0.503%; Swelling ratio (%) ([8]; 5.0 mg/kg sublingual intravenous injection, 360 min): 0.675 ± 0.578%; Swelling ratio (%) ([8]; 10.0 mg/kg sublingual intravenous injection, 30 min): 0.025 ± 0.210***^Δ▴▴▴ %; Swelling ratio (%) ([8]; 10.0 mg/kg sublingual intravenous injection, 60 min): 0.079 ± 0.156**^Δ▴▴ %; Swelling ratio (%) ([8]; 10.0 mg/kg sublingual intravenous injection, 120 min): 0.140 ± 0.156 %; Swelling ratio (%) ([8]; 10.0 mg/kg sublingual intravenous injection, 180 min): 0.191 ± 0.216 %; Swelling ratio (%) ([8]; 10.0 mg/kg sublingual intravenous injection, 240 min): 0.255 ± 0.294 %; Swelling ratio (%) ([8]; 10.0 mg/kg sublingual intravenous injection, 300 min): 0.310 ± 0.226***^Δ▴▴ %; Swelling ratio (%) ([8]; 10.0 mg/kg sublingual intravenous injection, 360 min): 0.405 ± 0.231 %; effect on the rat paw swelling induced by carrageenin vs blank control group ([8]; high dose group, within 30 min to 360 min after administration): significant inhibitive effects; antiviral effective rate (ER %) [9]: 99.95**^# %
